Test results published in patent US20240398787A1, “TREATMENT OF MAJOR DEPRESSIVE DISORDER” (AbbVie Inc., priority 2021, published 2024).

System: patients with major depressive disorder (MDD)
Test: MADRS total score, Clinical Study A (Study 301): cariprazine adjunctive to ADT, 6-week double-blind
Assay type: in vivo, human
Settings: for Proportion of patients with MADRS improvement ≥5 points / Proportion of patients with MADRS improvement ≥10 points / Proportion of patients with MADRS improvement ≥15 points / Proportion of patients with MADRS improvement ≥20 points / Proportion of patients with MADRS improvement ≥25 points: post hoc, end of week 6 (LOCF); for MADRS remission rate (total score ≤10) / MADRS response rate (≥50% score reduction from baseline): LOCF
Experimental: A global, multicenter, randomized, double-blind (DB), placebo-controlled, parallel-group, fixed-dose study compared cariprazine 1.5 mg/day and cariprazine 3 mg/day with placebo as an adjunctive treatment to ongoing ADT in outpatients with a diagnosis of MDD (via the Diagnostic and Statistical Manual of Mental Disorders, Fifth Edition [DSM-5]) having an inadequate response, as measured by the modified Antidepressant Treatment Response Questionnaire (ATRQ), to 1 to 3 antidepressants administered during the current episode at an adequate dose and adequate duration. Adequate dose was defined as a dose above the minimum labeled dose (per package insert). Adequate duration was defined as continuous ADT treatment for at least 6 weeks, with a minimum of 3 of 6 weeks above the minimal dose.
The study population included patients meeting criteria for MDD with a current major depressive episode of at least 8 weeks to less than 24 months in duration and an inadequate response to ongoing antidepressant therapy on the current episode. Both male and female patients of 18 to 65 years of age qualified for the study. Patients met the DSM-5 criteria for MDD based on the SCID-5, with a current major depressive episode of at least 8 weeks to less than 24 months in duration at the time of patient screening. A diagnosis of MDD with psychotic features was […].
Adequate dose was defined as a dose above the minimum labeled dose (per package insert). Adequate duration was defined as continuous antidepressant therapy treatment for at least 6 weeks, with a minimum of 3 of 6 weeks above the minimum dose.
The study consisted of up to 14 days screening (with up to an additional 7 days of needed) and washout of prohibited medications followed by 6 weeks of double-blind (DB) treatment followed by a 4-week safety follow-up. At the end of the screening period, patients meeting the entry criteria for the study were randomized (1:1:1) to 1 of 3 double-blind treatment groups. Study treatment groups were: cariprazine 1.5 mg/day+antidepressant therapy and cariprazine 3 mg/day+antidepressant therapy. The control group received matching placebo+antidepressant therapy.
Dosage/Dose Regimen: Investigational product (cariprazine or placebo) in the form of capsules packaged in blister packs will be provided. No investigational product was administered during the screening/washout period; patients continued the same antidepressant and dose they were on at screening. Patients were taking more than one antidepressant at screening, regardless of the indication, discontinued all other antidepressants prior to baseline (Visit 2). During the double-blind treatment period (6 weeks), patients were administered 1 capsule orally per day in addition to their ongoing ADT. Patients in the 1.5 mg/day+ADT arm were administered 1.5 mg+ADT starting at Visit 2 (Week 0). Patients in the 3 mg/day+ADT arm were administered 1.5 mg+ADT starting at Visit 2 (Week 0) for 2 weeks and then titrate to 3 mg/day+ADT starting at Visit 4 (Week 2). Patients were supplied with identically appearing capsules of either cariprazine 1.5 mg, cariprazine 3 mg, or placebo.
A randomized, double-blind, placebo-controlled, multicenter trial with 759 participants was conducted in United States, Bulgaria, Estonia, Germany, Hungary, Ukraine, and the United Kingdom. Following a screening period of up to 14 days (with up to an additional 7 days if needed), which included a washout of prohibited psychotropic medications except for ongoing ADT, patients with a partial response to their antidepressant monotherapy were randomized into three treatment groups (1:1:1). One group received cariprazine 1.5 mg/d+ADT, one received cariprazine 3.0 mg/d+ADT, and one group received placebo+ADT. All participants randomized to cariprazine began on 1.5 mg/d; cariprazine 1.5 mg/d patients remained at that dosage, while cariprazine 3.0 mg/d patients received 1.5 mg/d for 2 weeks and increased to 3.0 mg/d on day 15. […]

[1] = 1.5 mg/d + ADT, week 6, ANCOVA and LOCF
[2] = 3.0 mg/d + ADT, week 6, ANCOVA and LOCF
[3] = change from baseline to week 6, dose not stated

CN(C)C(=O)N[C@H]1CC[C@H](CCN2CCN(c3cccc(Cl)c3Cl)CC2)CC1 [Cariprazine, trans-N-{4-[2-[4-(2,3-dichlorophenyl)piperazin-1-yl]ethyl]cyclohexyl}-N′,N′-dimethylurea]
Proportion of patients with MADRS improvement ≥5 points (1.5 mg/d + ADT): 84% | Proportion of patients with MADRS improvement ≥10 points (1.5 mg/d + ADT): 64% | Proportion of patients with MADRS improvement ≥15 points (1.5 mg/d + ADT): 46% | Proportion of patients with MADRS improvement ≥20 points (1.5 mg/d + ADT): 33% | Proportion of patients with MADRS improvement ≥25 points (1.5 mg/d + ADT): 19% | Mean (SD) MADRS score at week 6 (1.5 mg/d + ADT, week 6): 17.4 (9.1) | LS mean change from baseline in MADRS total score [1]: −14.4 | LSMD vs placebo, MADRS total score [1]: −2.4 | MADRS remission rate (total score ≤10) (1.5 mg/d + ADT, week 6): 25.2% | MADRS response rate (≥50% score reduction from baseline) (1.5 mg/d + ADT, week 6): 44.0% | LS Mean (SE) change from baseline, MADRS total score (1.5 mg/day + ADT, week 1, MMRM): −4.4 (0.5) | LSMD (95% CI) vs placebo + ADT, MADRS total score (1.5 mg/day + ADT, week 1, MMRM): −0.6 (−1.5; 0.5) | MADRS remission, odds ratio vs placebo (95% CI) (1.5 mg/day + ADT, week 2): 0.9 (0.4, 1.8) | MADRS remissions (total score ≤10) (1.5 mg/day + ADT, week 2): 13 (5.2) n (%) | MADRS responders (≥50% score reduction) (1.5 mg/day + ADT, week 2): 43 (17.2) n (%) | MADRS response, odds ratio vs placebo (95% CI) (1.5 mg/day + ADT, week 2): 1.2 (0.7, 2.0) | LS Mean (SE) change from baseline, MADRS total score (1.5 mg/day + ADT, week 2, MMRM): −8.6 (0.6) | LSMD (95% CI) vs placebo + ADT, MADRS total score (1.5 mg/day + ADT, week 2, MMRM): −1.2 (−2.5; 0) | MADRS remission, odds ratio vs placebo (95% CI) (1.5 mg/day + ADT, week 4): 1.2 (0.7, 1.9) | MADRS remissions (total score ≤10) (1.5 mg/day + ADT, week 4): 37 (14.8) n (%) | MADRS responders (≥50% score reduction) (1.5 mg/day + ADT, week 4): 88 (35.2) n (%) | MADRS response, odds ratio vs placebo (95% CI) (1.5 mg/day + ADT, week 4): 1.6 (1.1, 2.3) | LS Mean (SE) change from baseline, MADRS total score (1.5 mg/day + ADT, week 4, MMRM): −12.4 (0.6) | LSMD (95% CI) vs placebo + ADT, MADRS total score (1.5 mg/day + ADT, week 4, MMRM): −2.9 (−4.3; −1.5) | MADRS remissions (total score ≤10) (1.5 mg/day + ADT, week 6): 63 (25.2) n (%) | MADRS responders (≥50% score reduction) (1.5 mg/day + ADT, week 6): 110 (44.0) n (%) | LSMD vs placebo, MADRS total score (1.5 mg/day + ADT, week 6, MMRM): −2.5 (−4.2; −0.9) | LSMD vs placebo, MADRS total score (1.5 mg/day + ADT, week 6, MMRM, listed as CAR): −2.5 | LSMD vs placebo, MADRS total score (1.5 mg/day + ADT, week 6, MMRM, listed as cariprazine): −2.5 | LS mean change from baseline in MADRS total score (1.5 mg/day + ADT, week 6, MMRM, mITT): −14.1 (0.7) | LS mean change from baseline in MADRS total score (1.5 mg/day + ADT, week 6, MMRM, mITT, listed as cariprazine): −14.1 | Proportion of patients with MADRS improvement ≥5 points (3.0 mg/d + ADT): 84% | Proportion of patients with MADRS improvement ≥10 points (3.0 mg/d + ADT): 66% | Proportion of patients with MADRS improvement ≥15 points (3.0 mg/d + ADT): 43% | Proportion of patients with MADRS improvement ≥20 points (3.0 mg/d + ADT): 24% | Proportion of patients with MADRS improvement ≥25 points (3.0 mg/d + ADT): 11% | Mean (SD) MADRS score at week 6 (3 mg/d + ADT, week 6): 18.6 (8.9) | LS mean change from baseline in MADRS total score [2]: −13.3 | LSMD vs placebo, MADRS total score [2]: −1.3 | MADRS remission rate (total score ≤10) (3.0 mg/d + ADT, week 6): 16.7% | MADRS response rate (≥50% score reduction from baseline) (3.0 mg/d + ADT, week 6): 39.3% | LS Mean (SE) change from baseline, MADRS total score (3 mg/day + ADT, week 1, MMRM): −3.9 (0.5) | LSMD (95% CI) vs placebo + ADT, MADRS total score (3 mg/day + ADT, week 1, MMRM): −0.1 (−1.0; 0.8) | MADRS remission, odds ratio vs placebo (95% CI) (3 mg/day + ADT, week 2): 0.5 (0.25, 1.23) | MADRS remissions (total score ≤10) (3 mg/day + ADT, week 2): 9 (3.6) n (%) | MADRS responders (≥50% score reduction) (3 mg/day + ADT, week 2): 39 (15.5) n (%) | MADRS response, odds ratio vs placebo (95% CI) (3 mg/day + ADT, week 2): 1.1 (0.7, 1.8) | LS Mean (SE) change from baseline, MADRS total score (3 mg/day + ADT, week 2, MMRM): −7.8 (0.6) | LSMD (95% CI) vs placebo + ADT, MADRS total score (3 mg/day + ADT, week 2, MMRM): −0.5 (−1.7; 0.8) | MADRS remission, odds ratio vs placebo (95% CI) (3 mg/day + ADT, week 4): 0.6 (0.4, 1.1) | MADRS remissions (total score ≤10) (3 mg/day + ADT, week 4): 22 (8.7) n (%) | MADRS responders (≥50% score reduction) (3 mg/day + ADT, week 4): 60 (23.8) n (%) | MADRS response, odds ratio vs placebo (95% CI) (3 mg/day + ADT, week 4): 0.9 (0.6, 1.3) | LS Mean (SE) change from baseline, MADRS total score (3 mg/day + ADT, week 4, MMRM): −10.6 (0.6) | LSMD (95% CI) vs placebo + ADT, MADRS total score (3 mg/day + ADT, week 4, MMRM): −1.0 (−2.4; 0.4) | MADRS remissions (total score ≤10) (3 mg/day + ADT, week 6): 42 (16.7) n (%) | MADRS responders (≥50% score reduction) (3 mg/day + ADT, week 6): 99 (39.3) n (%) | LSMD vs placebo, MADRS total score (3 mg/day + ADT, week 6, MMRM): −1.5 (−3.2; 0.1) | LSMD vs placebo, MADRS total score (3 mg/day + ADT, week 6, MMRM, listed as CAR): −1.5 | LS mean change from baseline in MADRS total score (3 mg/day + ADT, week 6, MMRM, mITT): −13.1 | LSMD vs placebo, MADRS individual item "apparent sadness" [3]: −0.2 | LSMD vs placebo, MADRS individual item "inability to feel" [3]: −0.3 | LSMD vs placebo, MADRS individual item "lassitude" [3]: −0.3 | LSMD vs placebo, MADRS individual item "pessimistic thoughts" [3]: −0.3 | LSMD vs placebo, MADRS individual item "reduced appetite" [3]: −0.3 | LSMD vs placebo, MADRS individual item "reported sadness" [3]: −0.4 | LSMD vs placebo, MADRS individual item "suicidal thoughts" [3]: −0.1
